Measured values published in ChEMBL document CHEMBL1127715, “Perhydrothiopyranopyrroles derivatives : A novel series of potent and selective nonpeptide NK1 antagonists” (Bioorg Med Chem Lett, 1994).

Experiments:
Substance-P receptor [1] = molecular target: T1, Substance-P receptor (Homo sapiens, UniProt P25103); test: Compound was evaluated for its affinity, measured in [3H]SP binding assay on human IM9 lymphoblast cultured cell line
Cavia porcellus = species: Cavia porcellus; test: Compound was evaluated for antagonism of the contractile effect in guinea pig ileum preparation; format: functional
Mus musculus = species: Mus musculus; test: Compound was evaluated for inhibiting PBQ induced writhing in mice perorally; format: functional
Substance-P receptor [2] = molecular target: Substance-P receptor (Cavia porcellus, UniProt P30547); test: Compound was evaluated for its affinity to guinea pig Tachykinin receptor 1
Chain of Substance-P receptor (Cavia porcellus, UniProt P30547) (P30547 whole entry): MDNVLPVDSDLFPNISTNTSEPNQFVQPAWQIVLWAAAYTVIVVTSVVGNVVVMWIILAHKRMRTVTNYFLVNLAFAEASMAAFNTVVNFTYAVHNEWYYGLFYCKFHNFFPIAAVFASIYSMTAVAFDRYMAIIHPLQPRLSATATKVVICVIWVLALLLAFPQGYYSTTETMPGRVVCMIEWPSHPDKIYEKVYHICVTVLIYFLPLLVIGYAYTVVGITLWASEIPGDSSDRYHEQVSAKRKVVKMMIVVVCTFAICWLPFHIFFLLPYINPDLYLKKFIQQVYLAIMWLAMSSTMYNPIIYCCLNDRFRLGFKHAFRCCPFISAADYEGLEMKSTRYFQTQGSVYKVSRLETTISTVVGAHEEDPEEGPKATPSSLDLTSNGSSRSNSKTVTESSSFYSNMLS

Substance-P receptor [3] = molecular target: Substance-P receptor (Rattus norvegicus, UniProt P14600); test: Compound was evaluated for its affinity to rat Tachykinin receptor 1
Chain of Substance-P receptor (Rattus norvegicus, UniProt P14600) (P14600 whole entry): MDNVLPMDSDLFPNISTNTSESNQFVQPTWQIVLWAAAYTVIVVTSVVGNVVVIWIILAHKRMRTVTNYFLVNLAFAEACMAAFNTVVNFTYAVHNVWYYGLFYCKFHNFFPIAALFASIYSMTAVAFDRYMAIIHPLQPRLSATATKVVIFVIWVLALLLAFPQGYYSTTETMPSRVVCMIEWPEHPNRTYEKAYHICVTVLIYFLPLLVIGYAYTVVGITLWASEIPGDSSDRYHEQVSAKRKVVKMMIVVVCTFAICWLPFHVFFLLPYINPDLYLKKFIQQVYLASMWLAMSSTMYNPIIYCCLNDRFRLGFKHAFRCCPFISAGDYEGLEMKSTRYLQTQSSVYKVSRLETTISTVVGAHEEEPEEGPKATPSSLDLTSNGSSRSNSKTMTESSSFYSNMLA

Substance-P receptor [4] = molecular target: T1, Substance-P receptor; test: Compound was evaluated for binding affinity against human Tachykinin receptor 1

T1 sequence (P25103 whole entry): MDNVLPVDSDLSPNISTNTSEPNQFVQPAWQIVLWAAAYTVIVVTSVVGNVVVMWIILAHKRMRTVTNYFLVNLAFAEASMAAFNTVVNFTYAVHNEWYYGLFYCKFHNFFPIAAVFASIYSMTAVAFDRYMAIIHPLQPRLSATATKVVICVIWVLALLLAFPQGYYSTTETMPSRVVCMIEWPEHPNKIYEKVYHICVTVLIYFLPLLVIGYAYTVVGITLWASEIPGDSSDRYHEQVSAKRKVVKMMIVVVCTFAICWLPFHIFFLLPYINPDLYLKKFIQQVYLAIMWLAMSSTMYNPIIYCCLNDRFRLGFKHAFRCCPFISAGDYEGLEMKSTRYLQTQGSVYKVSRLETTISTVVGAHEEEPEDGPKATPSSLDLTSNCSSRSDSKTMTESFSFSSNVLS

IC50 (Substance-P receptor [1]): 49 nM
IC50 (Cavia porcellus): 20 nM
IC50 (Substance-P receptor [2]): 70 nM
IC50 (Substance-P receptor [3]): 10 nM
IC50 (Substance-P receptor [4]): 23 nM
Compound: COc1ccccc1[C@H](C)C(=O)N1CC2[C@@H](C1)C(c1ccccc1)(c1ccccc1)CC[S+]2[O-] (stereo partly specified)
ED50 (Mus musculus): 5 mg/kg
